Test results: US20220088011A1, “THERAPEUTIC AGENT FOR A TUMOR COMPRISING AN IDO INHIBITOR ADMINISTERED IN COMBINATION WITH AN ANTIBODY” (KYOWA KIRIN CO., LTD., priority 2015, published 2022)

B1: mogamulizumab: humanized anti CCR4 monoclonal antibody (antibody, chains of the INN, looked up, V domains shown)
VH: EVQLVESGGDLVQPGRSLRLSCAASGFIFSNYGMSWVRQAPGKGLEWVATISSASTYSYYPDSVKGRFTISRDNAKNSLYLQMNSLRVEDTALYYCGRHSDGNFAFGYWGQGTLVTVSS
VL: DVLMTQSPLSLPVTPGEPASISCRSSRNIVHINGDTYLEWYLQKPGQSPQLLIYKVSNRFSGVPDRFSGSGSGTDFTLKISRVEAEDVGVYYCFQGSLLPWTFGQGTKVEIK

Columns and labels:
TL-Om1 cells [1] = experiment: ADCC of mogamulizumab against TL-Om1 cells by human PBMCs pre-incubated in conditioned medium; type: cell-based
Method: (§1) KATO-III cells (1.25×10^6 cells) were treated with 25 ng/mL recombinant human IFN-γ. […] Three days later, cells and supernatants were separated by centrifugation. The supernatants were used as conditioned medium. The conditioned medium was used for incubation of human PBMCs or NK cells (section 2.4.2), and measurement of Kyn and Trp (section 2.4.4).
(§2) NK cells were isolated from human PBMCs using NK isolation kit (Miltenyi Biotec, Cat. No. 130-092-657) and autoMACS instrument. Human PBMCs or NK cells were cultured in the conditioned medium (section 2.4.1) in a CO2 incubator. After 7 days, cells were harvested and counted, and used as effector cells. […] The radioactivity was counted with a microplate scintillation counter (TopCount NXT, PerkinElmer).
(§3) The percentage of cytotoxicity was calculated according to the following formula: […]
(§4) E is the experimental released radioactivity (cpm), S is the mean of spontaneous released radioactivity (cpm) by adding the assay medium instead of effector cells and antibody, and M is the mean of maximum released radioactivity (cpm) by adding 10 vol % Triton™ X-100 (Sigma-Aldrich, Cat. No. T9284-100ML) instead of effector cells and antibody. […]

HH cells = experiment: ADCC of mogamulizumab against HH cells by human PBMCs pre-incubated in conditioned medium; type: cell-based
Method: as §1, §2, §3, §4

SK-BR-3 cells = experiment: ADCC of trastuzumab against SK-BR-3 cells by human PBMCs pre-incubated in conditioned medium; type: cell-based; settings: human PBMCs pre-incubated 7 days in conditioned medium of KATO-III + IFN-γ + 100 nmol/L compound
Method: as §1
(§5) NK cells were isolated from human PBMCs using NK isolation kit (Miltenyi Biotec, Cat. No. 130-092-657) and autoMACS instrument. Human PBMCs or NK cells were cultured in the conditioned medium (section 2.4.1) in a CO2 incubator. After 7 days, cells were harvested and counted, and used as effector cells. PBMCs and NK cells used as effector cells were suspended in the assay medium (RPMI1640 containing 10 vol % heat-inactivated fetal bovine serum and 1 vol % Penicillin-Streptomycin) to 5×10^6 cells/mL (PBMCs) or 4×10^5 cells/mL (NK cells). TL-Om1 cells, HH cells, SK-BR-3 cells, Raji cells or A431 cells (1×10^6 cells/each cell line) were labeled with 1.85 MBq of Na2^51CrO4 (PerkinElmer) for over 1 hour at 37° C. in a CO2 incubator. The cells were washed 3 times with assay medium. The radiolabeled cells used as target cells were suspended in 5 mL of the assay medium to 2×10^5 cells/mL. […]

Raji cells = experiment: ADCC of rituximab against Raji cells by human PBMCs pre-incubated in conditioned medium; type: cell-based; settings: human PBMCs pre-incubated 7 days in conditioned medium of KATO-III + IFN-γ + 100 nmol/L compound
Method: as §1, §5

A431 cells = experiment: ADCC of cetuximab against A431 cells by human PBMCs pre-incubated in conditioned medium; type: cell-based; settings: human PBMCs pre-incubated 7 days in conditioned medium of KATO-III + IFN-γ + 100 nmol/L compound
Method: as §1, §5

TL-Om1 cells [2] = experiment: ADCC of mogamulizumab against TL-Om1 cells by purified human NK cells pre-incubated in conditioned medium; type: cell-based
Method: as §1, §2, §3, §4

TL-Om1 cells [3] = experiment: ADCC of mogamulizumab against TL-Om1 cells by human PBMCs pre-incubated in medium containing the compound itself; type: cell-based; settings: human PBMCs pre-incubated in medium containing 100 nmol/L compound for 7 days
Method: NK cells were isolated from human PBMCs using NK isolation kit (Miltenyi Biotec, Cat. No. 130-092-657) and autoMACS instrument. Human PBMCs or NK cells were cultured in the conditioned medium (section 2.4.1) in a CO2 incubator. After 7 days, cells were harvested and counted, and used as effector cells. PBMCs and NK cells used as effector cells were suspended in the assay medium (RPMI1640 containing 10 vol % heat-inactivated fetal bovine serum and 1 vol % Penicillin-Streptomycin) to 5×10^6 cells/mL (PBMCs) or 4×10^5 cells/mL (NK cells). TL-Om1 cells, HH cells, SK-BR-3 cells, Raji cells or A431 cells (1×10^6 cells/each cell line) were labeled with 1.85 MBq of Na2^51CrO4 (PerkinElmer) for over 1 hour at 37° C. in a CO2 incubator. The cells were washed 3 times with assay medium. The radiolabeled cells used as target cells were suspended in 5 mL of the assay medium to 2×10^5 cells/mL. […] Fifty μL of the target cells (1×10^4 cells) were plated into 96-well round bottomed culture plates and mixed with 50 μL of antibody dilutions prepared as described above and 50 μL of the effector cells (2.5×10^5 cells). The culture plates were briefly centrifuged at 4° C. and incubated at 37° C. in a CO2 incubator for about 4 hours. […] The radioactivity was counted with a microplate scintillation counter (TopCount NXT, PerkinElmer).

SKOV3 cells = experiment: Cytotoxicity of PBMCs against SKOV3 cells with or without Antibody C1 (51Cr release); type: cell-based, human; settings: PBMCs pre-incubated 7 days in conditioned medium of SKOV3 + 50 ng/mL IFNγ + 100 nmol/L compound, vs conditioned medium DMSO
Method: The supernatants of each culture were used as the conditioned medium for pre-incubation of PBMCs.
SKOV3 cells were detached from culture flasks by TrypLE Express (GIBCO). The live cells were adjusted to 1.0×10^6 cells by the ADCC assay medium [RPMI1640 without phenol red (GIBCO) with 10 vol % of dialyzed and heat-inactivated FCS(GIBCO)]. Then, the cells were labeled with approx. 3.7 MBq of Na2^51CrO4 (PerkinElmer) for over 1 hour at 37° C. in a CO2 incubator. The cells were washed three times, and adjusted to 2.0×10^5 cells/mL (1×10^4 cells/50 μL) as the target cells using the ADCC assay medium.
Human PBMCs were cultured in 25 mL of the conditioned medium for 7 days. […]
The cytotoxicity was quantified by measurement of radioactivity in the supernatant of each assay well. […]
Total, T spo, M, or Assay sample was defined and prepared as follows. • Total: Target cell total radioactivity control. This sample was prepared by mixing 50 μL of target cell, 15 μL of detergent (10×Lysis Solution, Promega), and 85 μL of the ADCC assay medium. • T spo: Target cell spontaneous radioactivity control. […]
Each sample was prepared in triplicate. […] The radioactivity (cpm) was counted with a microplate scintillation counter (TopCount NXT, PerkinElmer).
The cytotoxicity (%) was calculated by the following equations using the cpm of each well. […]

TL-Om1 cells [4] = experiment: ADCC of mogamulizumab against TL-Om1 cells by human PBMCs pre-incubated in conditioned medium of shRNA KATO-III cells; type: cell-based; settings: PBMCs pre-incubated in conditioned medium 3 (parent + IFN-γ) or 4 (NegaCTRL shRNA + IFN-γ) compared with conditioned medium 1 or 2
Method: Parental KATO-III or KATO-III cells stably expressing IDO1 shRNA or NegaCTRL shRNA (1.25×10^6 cells) were treated with 25 ng/mL recombinant human IFN-γ. Cells were incubated in a CO2 incubator. Three days later, cells and supernatants were separated by centrifugation. The supernatants were used as conditioned medium. The conditioned medium was used for incubation of human PBMCs (Section 7.4.5), and measurement of Kyn and Trp (Section 7.4.7).
Human PBMCs were cultured in each conditioned medium (Section 7.4.4) in a CO2 incubator. After 7 days, cells were harvested and counted, and used as effector cells. PBMCs used as effector cells were suspended in the assay medium (RPMI1640 containing 10 vol % heat-inactivated fetal bovine serum and 1 vol % Penicillin-Streptomycin) to 5×10^6 cells/mL. […] The radioactivity was counted with a microplate scintillation counter (TopCount NXT, PerkinElmer).
as §3, §4

Molecule	effect on the attenuation of ADCC of mogamulizumab against TL-Om1 cells (TL-Om1 cells [1]; human PBMCs (donor 1, donor 2) pre-incubated 7 days in conditioned medium of KATO-III + IFN-γ + 100 nmol/L compound)	effect on the attenuation of ADCC of mogamulizumab against HH cells (HH cells; human PBMCs pre-incubated 7 days in conditioned medium of KATO-III + IFN-γ + 100 nmol/L compound)	effect on the attenuation of ADCC of trastuzumab against SK-BR-3 cells (SK-BR-3 cells)	effect on the attenuation of ADCC of rituximab against Raji cells (Raji cells)	effect on the attenuation of ADCC of cetuximab against A431 cells (A431 cells)	effect on the attenuation of ADCC of mogamulizumab by NK cells (TL-Om1 cells [2]; purified human NK cells pre-incubated in conditioned medium of KATO-III + IFN-γ + 100 nmol/L compound, TL-Om1 target cells)	effect of the compound itself on ADCC of mogamulizumab (TL-Om1 cells [3])	cytotoxicity without Antibody C1 (natural killing activity) of PBMCs against SKOV3 cells (SKOV3 cells)	cytotoxicity of PBMCs against SKOV3 cells in the presence of Antibody C1 (SKOV3 cells; Antibody C1 0.033-333 ng/mL)	ADCC against TL-Om1 cells (TL-Om1 cells [1]; PBMCs (donor 1, donor 2) pre-incubated in conditioned medium 2 (KATO-III + IFN-γ) compared with conditioned medium 1)	ADCC against HH cells (HH cells; PBMCs pre-incubated in conditioned medium 2 (KATO-III + IFN-γ))	ADCC by NK cells against TL-Om1 cells (TL-Om1 cells [2]; purified NK cells pre-incubated in conditioned medium 2 (KATO-III + IFN-γ))	ADCC against TL-Om1 cells (TL-Om1 cells [4])
NS(=O)(=O)NCCNc1nonc1C(=NO)Nc1ccc(F)c(Br)c1 [Compound B1, 4-({2-[(aminosulfonyl)amino]ethyl}amino)-N-(3-bromo-4-fluorophenyl)-N′-hydroxy-1,2,5-oxadiazole-3-carboximidamide]	canceled the attenuation	canceled the attenuation	canceled the attenuation	canceled the attenuation	canceled the attenuation	canceled	did not influence	higher	higher	–	–	–	–
B1	–	–	–	–	–	–	–	–	–	attenuated	attenuated	attenuated	attenuated
